One assay relates to cell proliferation. Conditions: cited from earlier work.
Another assay has as its system Grb2 SH2 domain. The assay can be described thus: Surface plasmon resonance (Biacore): inhibition of GST-Grb2 binding to immobilised SHC phosphopeptide. Conditions: for inhibition of Grb2 binding to the SHC phosphopeptide: peptide at 50 µM; for inhibiting activity: peptide at 500 µM. The source says: The G1 peptide (CELYENVGMYC [disulfide bonded]) was used as an inhibitor of the interaction of the Grb2 with a SHC phosphopeptide in surface plasmon resonance (Biacore) experiments. The SHC phosphopeptide was attached to the solid surface by incorporation of a biotin at the N-terminus as described in Pelicci, G., et al., "The motogenic and mitogenic responses to HGF are amplified by the Shc adaptor protein," Oncogene, 10: 1631-1638, 1995. This biotinylated phospho-SHC peptide was then bound to the streptavidin on the surface of SA5 chips (Pharmacia-Biacore). The binding was conducted at a 2nM and 5 µl/minute for 10 minutes. The peptides were mixed with 200 nM GST-Grb2 in HBS buffer (Pharmacia Biacore) and allowed to bind for 10 minutes at a flow rate of 5 µl/minute. The Ru change at equilibrium was calculated and the percent of control (no added peptide) binding was calculated.
The G1 peptide was compared to SHC phosphopeptide (DDPSpYVNVQ), G1C-S (SELYENVGMYS), which is similar to G1 but wherein the cysteines are replaced with serines, and SHC control peptide (DDPSYVNVQ), in which the tyrosine is not phosphorated.
Songyang et al. Mol. Cell Biol., 14:2777-2785 (1994). The requirement of these amino acids in the G1 peptide sequence was tested by synthesizing peptides with alanine substitutions at these positions. G1.4Y-A contains an alanine substitution in place of the tyrosine at position 4 (CELAENVGMYC) and G16N-A contains an alanine substitution for the asparagine at position 6 (CELYEAVGMYC). […] The binding of peptide to the Grb2 SH2 domain was measured by surface plasmon resonance (Pharmacia Biacore). The percent inhibition was calculated by comparison of the Rueq in the presence of peptide with the Rueq with no inhibiting peptide present.

The target in assay [1] is intact GST-Grb2 fusion protein (UniProt P62993). The assay can be described thus: SPR competition in solution, SHC phosphopeptide and G1 for GST-Grb2 compared directly (Figure 6).
Chain of UniProt P62993 (P62993 whole entry, the tested form may be a part): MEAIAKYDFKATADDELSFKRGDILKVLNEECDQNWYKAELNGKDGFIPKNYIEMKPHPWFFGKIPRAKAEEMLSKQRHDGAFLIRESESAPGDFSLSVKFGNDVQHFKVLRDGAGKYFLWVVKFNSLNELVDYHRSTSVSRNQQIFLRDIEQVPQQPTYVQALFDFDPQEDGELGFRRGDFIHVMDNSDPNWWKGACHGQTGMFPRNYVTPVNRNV

Bridge positions count the residues as written; N and C are the ends. Ends that are not written are not given here.

These results are taken from patent EP0969854B1, “INHIBITION OF SIGNAL TRANSDUCTION BY THE BINDING OF NON-PHOSPHORYLATED COMPOSITIONS” (GEORGETOWN UNIVERSITY, priority 1996, dated 2006).

Regarding AcpYEEIE, the “block of cell proliferation” value in the assay on cell proliferation is “lack of effect”.

Regarding “CELAENVGMYC [G1.4Y-A, alanine substitution in place of the tyrosine at position 4]”, in the assay with Grb2 SH2 domain, the “inhibition of Grb2 binding to the SHC phosphopeptide” value was “No inhibition” and the inhibiting activity entry is “limited activity”. Regarding “CELYEAVGMYC [G16N-A, alanine substitution for the asparagine at position 6]”, in the assay on Grb2 SH2 domain, the “inhibition of Grb2 binding to the SHC phosphopeptide” value is listed as “No inhibition” and the inhibiting activity result is recorded as “limited activity”.

Turning to CELYENVGMYC (disulfide 1-11) [G1 peptide (… [disulfide bonded])], the fold difference in affinity against SHC phosphopeptide in assay [1] stood at 10 fold.
